The subject of data set [1] is P. gingivalis wild-type W83. The data set is described as follows: P8 growth inhibition under iron restriction (100 µM dipyridyl). The class given is cell-based, Porphyromonas gingivalis. Particulars: P8 at 1 µM (below the MIC). From the text:
Fig. 5 A prototype DPIX-conjugated antibiotic binds HusA and inhibits P. gingivalis. a The chemical structure of the deuteroporphyrin-lysine-metronidazole adduct, P8. b NMR signal intensity changes (black) and ^1H^N CSPs (red/green) for HusA upon addition of P8 (measured from ^15N-HSQC spectra shown in Supplementary Figure 21). c In silico docking of P8 to the energy minimized structure of HusA (conformer set 1), with residues experiencing NMR signal loss (orange) or CSPs (red/green) mapped to the structure (colouring as described in Fig. 2d). d Scaled and corrected fluorescence at 335 nm during titration of 1 μM of HusA with increasing concentrations of P8, haemin or DPIX. e Comparison of P8 inhibitory effect towards P. gingivalis wild-type W83 and husA mutants using checkerboard analysis. Serial dilutions of antibiotics (horizontal axis) were applied to a 96-well plate with different P. gingivalis strains (vertical axis). Serial dilutions of DPIX were also supplemented into wild-type W83 group to evaluate the competitive effect against P8. Absorption at OD600 of each well was recorded after 24 h of incubation. The OD600 of each strain grown in the absence of antibiotics was defined as 100% growth, which was applied to normalise the reading collected from other wells. […] Recovered bacteria were determined by CFU count. […]

Data set [2] concerns H413 gingival epithelial cell. The class given is cell-based, Human. The method, then:
Human gingival epithelial cells were grown to confluence and seeded on plastic chamber slides (75 × 25 mm^2) for incubation in 5% CO2 atmosphere overnight. Bacterial cells were co-incubated with epithelial cells at 37 °C for 2 h. After exposure to the antibiotics, epithelial cells were washed in PBS and incubated in culture media containing 5% FCS for 24 h. Subsequently, samples in the chamber slides were fixed with 4% fresh paraformaldehyde in PBS for 30 min at room temperature, washed in PBS, and permeabilised by ice-cold methanol for 5 min. Samples were then blocked overnight with 10% FCS supplemented with 0.05% (v/v) Triton X-100 in PBS buffer. Intracellular P. gingivalis was stained using the primary antibody IIB2[44] and fluorochrome-conjugated secondary antibody. […] Labelled epithelial cells with invaded bacteria were detected using an Olympus FV1000 confocal laser scanning microscope. In addition, the intrinsic fluorescence of P8 allowed temporal tracking of internalisation of P8 into epithelial cells in a separate experiment. Live cell images were recorded using a DeltaVision Elite Core Microscope.
Supplementary Figure 23. (A) UV-vis spectra of 10 µM P8 alone and in the presence of 10 µM HusA. (B) Stability assay of P8 in the presence of gingival epithelial cell lysate. The intensity of P8 fluorescence was applied to monitor the stability of P8 in the presence of cell lysate. […]

For the next data set, the target named is T1, HusA (Porphyromonas gingivalis, UniProt Q7MSY3).
T1 sequence (Q7MSY3 24-218): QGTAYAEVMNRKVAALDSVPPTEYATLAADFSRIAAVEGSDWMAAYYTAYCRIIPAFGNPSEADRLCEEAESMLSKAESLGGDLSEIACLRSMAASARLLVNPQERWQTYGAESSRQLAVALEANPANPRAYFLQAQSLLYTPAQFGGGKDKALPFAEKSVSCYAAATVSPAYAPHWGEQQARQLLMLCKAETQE
The data set is described as follows: Tryptophan fluorescence quenching assay, HusA wild-type. The class given is binding. The method, then: (§1) The quenching of intrinsic tryptophan fluorescence of HusA upon porphyrin additions was measured using a Carey Eclipse Fluorescence Spectrophotometer (Agilent) set to a photo multiplier effect (PME) of 850. A 5-mm path length quartz cuvette was used and all spectra were acquired at room temperature. Excitation was set to 295 nm and emission was measured from 300 nm to 500 nm using excitation/emission slit widths of 5 nm. Binding assays were performed at a protein concentration of 1 μM HusA in standard buffer at a working volume of 0.5 mL. […] The fluorescence quenching of HusA by PPIX was investigated in a similar manner with the following difference: the fluorescence intensities of ten 1 μM HusA samples were measured each with increasing amounts of PPIX after a 2-h incubation period to allow equilibrium to be reached. See Supplementary Methods for correction for inner filter effect and curve fitting. […]
Correction of inner filter effect and curve fitting in tryptophan fluorescence quenching assays The concentration of NATA was chosen such that the raw fluorescence intensity was similar to the […] concentrations of HusA and mutants used. The same molarity titrants of porphyrin were titrated into NATA as were added into HusA in the control reactions. Fluorescence intensity was scaled with respect to the starting florescence and corrected for the inner filter effect. Fluorescence at 335 nm was used to fit binding curves.
The correction method is based on Fonin AV., et al.26, noting that a Cary Eclipse spectrofluorimeter […]
performed to measure the contribution to the decrease in fluorescence due to the inner filter effect and this effect was scaled to the starting fluorescence values as fractional changes. The measured fluorescence at each titration point for each of the porphyrin titrations into protein was then adjusted for this contribution. Fluorescence at 335 nm was used to fit binding curves. Association constant, Ka, was fitted using the following equation in Origin, assuming a single binding site. A dissociation constant, Kd, was calculated by taking the inverse of the Ka.
Xobs = XA×f A+XAB×f AB (1) where XA is the corrected fluorescence, fA=1-fAB, fAB=x/(Bt), x=(-b-sqrt(b2-4×c))/2, b=-(1/Ka+At+Bt), c=Bt×At, Bt=total concentration of protein, At=total concentration of ligand.
To aid comparison of the different titrations, the corrected fluorescence was scaled to the starting fluorescence in the absence of porphyrins (i.e. all fluorescence curves have a starting value of one

The target in another data set is T2, HusA L123N-V124N (Porphyromonas gingivalis, UniProt Q7MSY3, L123N/V124N).
T2 sequence (Q7MSY3 24-218 L123N/V124N): T1 sequence (Q7MSY3 24-218)
The data set can be described thus: Tryptophan fluorescence quenching assay, HusA mutant L123N-V124N. The conditions noted are these: mutant LV123/4NN. The class given is binding. The method, then:
as §1
Correction of inner filter effect and curve fitting in tryptophan fluorescence quenching assays The concentration of NATA was chosen such that the raw fluorescence intensity was similar to the 10 uM concentrations of HusA and mutants used. […] Fluorescence intensity was scaled with respect to the starting florescence and corrected for the inner filter effect. Fluorescence at 335 nm was used to fit binding curves. […]

Read-outs that look alike come from different tables or passages of the source.

As to `CC1=Cc2cc3[nH]c(cc4nc(cc5[nH]c(cc1n2)cc5C)C(C)=C4CCC(=O)N[C@@H](CCCCNC(=O)OC(C)(C)C)C(=O)NCCn1c([N+](=O)[O-])cnc1C)c(CCC(=O)O)c3C` [P8], the “susceptibility of W83 under iron restriction” value in data set [1] is “susceptible”. Besides, the “integrity of epithelial cells (confocal images)” value in data set [2] (20 µM P8) is recorded as “remain intact”. Besides, in data set [2] (over a 2-h period), the “accumulation in epithelial cells” value is given as “progressive accumulation”. Moreover, the Kd at HusA (estimate by comparison to other porphyrins, not fitted, UV-visible absorption and fluorescence data, read-out: affinity for HusA) is 1 to 10 µM.

On HusA (HusA wild-type 1 µM, fit to 1:1 binding model), `C=CC1=C(C)c2cc3[nH]c(cc4nc(cc5[nH]c(cc1n2)c(C)c5CCC(=O)O)C(CCC(=O)O)=C4C)c(C)c3C=C.[Fe+3]` [haemin] displayed a Kd of 7.3 ± 1.1 µM. The “reduction of haemin affinity compared to wild-type” value on HusA L123N-V124N is given as more than 50%.

Values taken from publication PMC6173696, “Structural properties of a haemophore facilitate targeted elimination of the pathogen Porphyromonas gingivalis” (Nature Communications, 2018).
